# Source: ChEMBL document CHEMBL1201862, “PubChem BioAssay data set” (2004)
#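 Values below derive from 48-hour exposures of cells grown in 96-well plates, with endpoints linearly interpolated between the two concentrations bracketing the appropriate inhibition level. GI50: concentration for 50% inhibition of growth.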 Active and inactive are the calls of the source. Rule as the data show it: active = GI50 up to about 1.1 µM and inactive = higher.
# How the values were obtained:
# Experiment in all cases: NCI anticancer screen, dose series, 48 h
# 786-0 = system: 786-0
# A498 = system: A498
# A549 = system: A549
# ACHN = system: ACHN
# CAKI-1 = system: CAKI-1
# CCRF-CEM = system: CCRF-CEM
# COLO 205 = system: COLO 205
# DLD-1 = system: DLD-1
# DMS-114 = system: DMS-114
# DMS-273 = system: DMS-273
# EKVX = system: EKVX
# HCC 2998 = system: HCC 2998
# HCT-116 = system: HCT-116
# HCT-15 = system: HCT-15
# HL-60 = system: HL-60
# HOP-62 = system: HOP-62
# HOP-92 = system: HOP-92
# HT-29 = system: HT-29
# IGROV-1 = system: IGROV-1
# K562 = system: K562
# KM-20L2 = system: KM-20L2
# KM12 = system: KM12
# LOX IMVI = system: LOX IMVI
# LXFL 529 = system: LXFL 529
# M14 = system: M14
# M19-MEL = system: M19-MEL
# MOLT-4 = system: MOLT-4
# Malme-3M = system: Malme-3M
# NCI-H226 = system: NCI-H226
# NCI-H23 = system: NCI-H23
# NCI-H460 = system: NCI-H460
# NCI-H522 = system: NCI-H522
# OVCAR-3 = system: OVCAR-3
# OVCAR-4 = system: OVCAR-4
# OVCAR-5 = system: OVCAR-5
# OVCAR-8 = system: OVCAR-8
# RPMI-8226 = system: RPMI-8226
# RXF 393 = system: RXF 393
# RXF 631 = system: RXF 631
# SF-268 = system: SF-268
# SF-295 = system: SF-295
# SF-539 = system: SF-539
# SK-MEL-28 = system: SK-MEL-28
# SK-MEL-2 = system: SK-MEL-2
# SK-MEL-5 = system: SK-MEL-5
# SK-OV-3 = system: SK-OV-3
# SN12C = system: SN12C
# SNB-19 = system: SNB-19
# SNB-75 = system: SNB-75
# SNB-78 = system: SNB-78
# SW-620 = system: SW-620
# TK-10 = system: TK-10
# U-251 = system: U-251
# UACC-257 = system: UACC-257
# UACC-62 = system: UACC-62
# UO-31 = system: UO-31
# XF498 = system: XF498
# HOP-18 = system: HOP-18
# SR = system: SR
structure (smiles),measurement,setting,value
CCN(CC)C1CC(O[C@H]2C[C@](O)(C(=O)CO)Cc3c(O)c4c(c(O)c32)C(=O)c2c(OC)cccc2C4=O)OC(C)C1O (stereo partly specified),GI50,786-0,58.8 nM (active)
same,GI50,A498,23.6 nM (active)
same,GI50,A549,39.5 nM (active)
same,GI50,ACHN,31.6 nM (active)
same,GI50,CAKI-1,232 nM (active)
same,GI50,CCRF-CEM,122 nM (active)
same,GI50,COLO 205,38.7 nM (active)
same,GI50,DLD-1,39.5 nM (active)
same,GI50,DMS-114,64.7 nM (active)
same,GI50,DMS-273,< 21.5 nM (active)
same,GI50,EKVX,82 nM (active)
same,GI50,HCC 2998,94.8 nM (active)
same,GI50,HCT-116,21.4 nM (active)
same,GI50,HCT-15,245 nM
same,GI50,HL-60,106 nM (active)
same,GI50,HOP-62,88.7 nM (active)
same,GI50,HOP-92,52.2 nM (active)
same,GI50,HT-29,< 25.2 nM (active)
same,GI50,IGROV-1,85.9 nM (active)
same,GI50,K562,26.4 nM (active)
same,GI50,KM-20L2,73.3 nM (active)
same,GI50,KM12,57.7 nM (active)
same,GI50,LOX IMVI,< 25.9 nM (active)
same,GI50,LXFL 529,45.8 nM (active)
same,GI50,M14,98.2 nM (active)
same,GI50,M19-MEL,48.4 nM (active)
same,GI50,MOLT-4,22.5 nM (active)
same,GI50,Malme-3M,65.3 nM (active)
same,GI50,NCI-H226,19 nM (active)
same,GI50,NCI-H23,49.1 nM (active)
same,GI50,NCI-H460,< 19 nM (active)
same,GI50,NCI-H522,< 25.6 nM (active)
same,GI50,OVCAR-3,126 nM (active)
same,GI50,OVCAR-4,54.6 nM (active)
same,GI50,OVCAR-5,120 nM (active)
same,GI50,OVCAR-8,< 26.2 nM (active)
same,GI50,RPMI-8226,51.3 nM (active)
same,GI50,RXF 393,44.6 nM (active)
same,GI50,RXF 631,65.5 nM (active)
same,GI50,SF-268,47 nM (active)
same,GI50,SF-295,51.2 nM (active)
same,GI50,SF-539,46.1 nM (active)
same,GI50,SK-MEL-28,76.4 nM (active)
same,GI50,SK-MEL-2,67 nM (active)
same,GI50,SK-MEL-5,50.8 nM (active)
same,GI50,SK-OV-3,299 nM (active)
same,GI50,SN12C,45 nM (active)
same,GI50,SNB-19,103 nM (active)
same,GI50,SNB-75,28 nM (active)
same,GI50,SNB-78,80 nM (active)
same,GI50,SW-620,< 21.9 nM (active)
same,GI50,TK-10,88.1 nM (active)
same,GI50,U-251,50.9 nM (active)
same,GI50,UACC-257,95.1 nM (active)
same,GI50,UACC-62,43.1 nM (active)
same,GI50,UO-31,60.4 nM (active)
same,GI50,XF498,75.2 nM (active)
Cc1cccc2c1C(=O)OC2(c1cccc2ccccc12)c1cccc2ccccc12,GI50,786-0,52800 nM (inactive)
same,GI50,A498,> 100000 nM (inactive)
same,GI50,A549,> 100000 nM (inactive)
same,GI50,ACHN,63500 nM (inactive)
same,GI50,CAKI-1,> 100000 nM (inactive)
same,GI50,CCRF-CEM,> 100000 nM (inactive)
same,GI50,COLO 205,> 100000 nM (inactive)
same,GI50,DLD-1,> 100000 nM (inactive)
same,GI50,DMS-114,40700 nM (inactive)
same,GI50,DMS-273,> 100000 nM (inactive)
same,GI50,EKVX,> 100000 nM (inactive)
same,GI50,HCC 2998,> 100000 nM (inactive)
same,GI50,HCT-116,> 100000 nM (inactive)
same,GI50,HCT-15,> 100000 nM
same,GI50,HL-60,> 100000 nM (inactive)
same,GI50,HOP-18,52600 nM (inactive)
same,GI50,HOP-62,27400 nM (inactive)
same,GI50,HT-29,> 100000 nM (inactive)
same,GI50,IGROV-1,> 100000 nM (inactive)
same,GI50,K562,> 100000 nM (inactive)
same,GI50,KM-20L2,> 100000 nM (inactive)
same,GI50,KM12,> 100000 nM (inactive)
same,GI50,LOX IMVI,> 100000 nM (inactive)
same,GI50,LXFL 529,> 100000 nM (inactive)
same,GI50,M14,> 100000 nM (inactive)
same,GI50,M19-MEL,> 100000 nM (inactive)
same,GI50,MOLT-4,> 100000 nM (inactive)
same,GI50,Malme-3M,> 100000 nM (inactive)
same,GI50,NCI-H226,> 100000 nM (inactive)
same,GI50,NCI-H23,26700 nM (inactive)
same,GI50,NCI-H460,> 100000 nM (inactive)
same,GI50,NCI-H522,61000 nM (inactive)
same,GI50,OVCAR-3,> 100000 nM (inactive)
same,GI50,OVCAR-4,89900 nM (inactive)
same,GI50,OVCAR-5,> 100000 nM (inactive)
same,GI50,OVCAR-8,40200 nM (inactive)
same,GI50,RXF 393,27200 nM (inactive)
same,GI50,RXF 631,11300 nM (inactive)
same,GI50,SF-268,56000 nM (inactive)
same,GI50,SF-295,33600 nM (inactive)
same,GI50,SK-MEL-28,> 100000 nM (inactive)
same,GI50,SK-MEL-2,> 100000 nM (inactive)
same,GI50,SK-MEL-5,> 100000 nM (inactive)
same,GI50,SK-OV-3,> 100000 nM (inactive)
same,GI50,SN12C,> 100000 nM (inactive)
same,GI50,SNB-19,81100 nM (inactive)
same,GI50,SNB-75,21300 nM (inactive)
same,GI50,SR,> 100000 nM (inactive)
same,GI50,SW-620,> 100000 nM (inactive)
same,GI50,TK-10,> 100000 nM (inactive)
same,GI50,U-251,70100 nM (inactive)
same,GI50,UACC-257,> 100000 nM (inactive)
same,GI50,UACC-62,> 100000 nM (inactive)
same,GI50,UO-31,79300 nM (inactive)
